Assay results: article PMC11002716 (ACS chemical biology, 2022)
Ends that are not written are not given here.

Experiments:
[1] = target: fluorescein-labeled KB-752; test: MST
[2] = system: HEK293 cells overexpressing the SNAP-β2 adrenergic receptor (Gs signaling pathway); test: Whole-cell Iso-induced cAMP accumulation assay; assay type: cell-based
[3] = system: Gs signaling (β2–adrenergic receptor, AC); test: Cell-free ELISA-based cAMP assay on NG108–15 membrane preparations; assay type: biochemical
[4] = system: Gi signaling (δ–opioid receptor, AC); test: as above; assay type: biochemical; conditions: Fsk+DADLE
[5] = target: Gαi1·GDP (UniProt P63096 2-354); test: MST
Gαi1·GDP (UniProt P63096 2-354), sequence (P63096 2-354): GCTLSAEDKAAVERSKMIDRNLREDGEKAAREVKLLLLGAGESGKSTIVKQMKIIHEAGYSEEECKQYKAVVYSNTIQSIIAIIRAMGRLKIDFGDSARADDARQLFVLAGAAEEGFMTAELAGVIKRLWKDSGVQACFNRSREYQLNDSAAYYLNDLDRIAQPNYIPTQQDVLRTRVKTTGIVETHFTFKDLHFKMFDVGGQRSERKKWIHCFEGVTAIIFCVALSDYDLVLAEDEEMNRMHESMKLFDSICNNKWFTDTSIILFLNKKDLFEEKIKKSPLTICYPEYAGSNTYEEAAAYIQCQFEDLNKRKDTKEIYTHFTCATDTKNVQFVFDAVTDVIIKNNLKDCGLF

Gαi1·GDP (from UniProt P63096 2-354) (natural protein), sequence (P63096 2-354): as above

“Gαi1·GDP (from UniProt P63096 2-354) (natural protein)” gave a Kd [1] of 345 nM.

SRVTWYDFLMEDTKSR-OH [KB–752] was tested, and the “effect on Gαs in the whole cell assay” value [2] was “no effect”, the “effect on Gs signaling / functional regulation of Gαs in cell-free ELISA” value [3] was “inhibit Gs signaling” and the “effect on DADLE-mediated inhibition of the AC activity” value [4] was “no effect”.

{5(6)‑carboxyfluorescein}-RWLRALRYP [GPM-1 Y5A, fluorescein-labeled] showed a Kd [5] of 285 ± 40 nM.
